Among the data in PubChem BioAssay (NCI) are TGI and GI50 values, retold here.

Each structure is given as a SMILES string.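 Following 48 hours of exposure in 96-well plates, responses at five concentrations were used to interpolate endpoints linearly. Here, GI50 denotes the concentration required for 50% inhibition of growth. The concentration for full growth arrest is given as TGI.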

Test systems include OVCAR-3 ovarian; CCRF-CEM leukemia; RPMI-8226 leukemia; SK-MEL-28 melanoma; SF-295 CNS; CAKI-1 renal; KM12 colon; NCI-H460 lung; SR leukemia; M14 melanoma.
Test in all cases: NCI-60 cell line screen, 48 h

Take `COc1ccccc1/C=C1\CCC(CCN(C)C)(C2=CCCC2)C1=O` (stereo not drawn): the TGI with OVCAR-3 ovarian was determined as 40.6 µM; with CCRF-CEM leukemia, 51.6 µM; with RPMI-8226 leukemia it was 41.3 µM; in the test on SK-MEL-28 melanoma, 32.7 µM; in the test on SF-295 CNS it was 31.7 µM; with CAKI-1 renal, 57.2 µM. Also, the TGI in the test with KM12 colon was determined as 33 µM; in the test with NCI-H460 lung, 31.4 µM; in the test with SR leukemia, 52.3 µM; in the test on M14 melanoma it was 31.3 µM.
Take `O=Nc1c(-c2c(O)[nH]c3ccc([N+](=O)[O-])cc23)[nH]c2ccc(O)cc12`: the GI50 is 0.367 µM in the test with OVCAR-3 ovarian; 0.11 µM in the test with CCRF-CEM leukemia; 0.665 µM in the test with RPMI-8226 leukemia; 0.435 µM in the test on SK-MEL-28 melanoma; 0.62 µM in the test on SF-295 CNS; 0.332 µM with CAKI-1 renal. Besides, the GI50 in the test with KM12 colon was 0.298 µM; in the test on NCI-H460 lung it was 0.32 µM; with SR leukemia it was 0.258 µM; with M14 melanoma, 0.496 µM. Further, the TGI in the test on OVCAR-3 ovarian was 3.04 µM; in the test on CCRF-CEM leukemia, 12.2 µM; in the test on RPMI-8226 leukemia, 14.7 µM; in the test with SK-MEL-28 melanoma, more than 100 µM; in the test with SF-295 CNS, more than 100 µM; in the test with CAKI-1 renal it was more than 100 µM. The figures for the TGI in the test with KM12 colon, in the test with SR leukemia and in the test with M14 melanoma were 1.28 µM, 12.6 µM and more than 87 µM, respectively.
As for `CCn1c(C(=O)N(C2CC2)C2CC2)cc2c3c(ncn3C)c(Nc3cc(C)n(C)n3)nc21`, the GI50 is more than 100 µM in the test on OVCAR-3 ovarian; more than 100 µM in the test on CCRF-CEM leukemia; more than 100 µM in the test with RPMI-8226 leukemia; more than 100 µM in the test on SK-MEL-28 melanoma; more than 100 µM in the test on SF-295 CNS; 16.8 µM in the test on CAKI-1 renal. For the same compound, the GI50 with KM12 colon was 0.506 µM; in the test with NCI-H460 lung, more than 100 µM; in the test with SR leukemia, 16.8 µM; with M14 melanoma, more than 100 µM. Besides, the TGI with OVCAR-3 ovarian, in the test on CCRF-CEM leukemia, with RPMI-8226 leukemia, in the test with SK-MEL-28 melanoma, in the test with SF-295 CNS and in the test on CAKI-1 renal was more than 100 µM in each case. The TGI in the test with KM12 colon, in the test on NCI-H460 lung, in the test on SR leukemia and with M14 melanoma was more than 100 µM each time.
On to `COc1ccc(Nc2ncc(Br)c(NCCCNC(=O)C3CCC3)n2)cc1`, for which the GI50 was 16.5 µM in the test on OVCAR-3 ovarian; 4.49 µM in the test on CCRF-CEM leukemia; 14 µM in the test on RPMI-8226 leukemia; 33.4 µM with SK-MEL-28 melanoma; 11 µM in the test on SF-295 CNS; 5.21 µM with CAKI-1 renal. Besides, the GI50 in the test on KM12 colon is 8.06 µM; in the test with NCI-H460 lung, 8.34 µM; in the test with SR leukemia it was 4.34 µM; in the test with M14 melanoma it was 31.5 µM. Further, the TGI with OVCAR-3 ovarian is 48.5 µM; with CCRF-CEM leukemia it was 98.1 µM; in the test on RPMI-8226 leukemia, 42.1 µM; in the test on SK-MEL-28 melanoma, more than 100 µM; in the test on SF-295 CNS, 89.4 µM; in the test with CAKI-1 renal, 31.6 µM. Besides, the TGI in the test on KM12 colon is more than 100 µM; with NCI-H460 lung, 31.5 µM; with SR leukemia, 40.1 µM; in the test on M14 melanoma, more than 100 µM.
Turning to `O=C1c2ccc([N+](=O)[O-])cc2-c2c1c1ccccc1c(=O)n2CCCNCCCNCCCn1c2c(c3ccc([N+](=O)[O-])cc3c1=O)C(=O)c1ccccc1-2`, the GI50 was 2.2 µM in the test on OVCAR-3 ovarian; 1.77 µM with CCRF-CEM leukemia; 0.258 µM in the test on RPMI-8226 leukemia; 3.83 µM in the test with SK-MEL-28 melanoma; 2.23 µM with SF-295 CNS; 3.33 µM with CAKI-1 renal. The GI50 in the test on KM12 colon is 1.53 µM; with NCI-H460 lung, 2.34 µM; in the test with SR leukemia it was 0.0306 µM; in the test with M14 melanoma, 13.6 µM. The TGI is 6.16 µM in the test on OVCAR-3 ovarian; 5.62 µM in the test with CCRF-CEM leukemia; 0.82 µM in the test on RPMI-8226 leukemia; 15.9 µM in the test with SK-MEL-28 melanoma; 20.7 µM with SF-295 CNS; 20.8 µM in the test with CAKI-1 renal. The TGI with KM12 colon is 4.31 µM; in the test on NCI-H460 lung, 14.6 µM; with SR leukemia, 2.83 µM; with M14 melanoma it was 33.9 µM.
On to `CCCn1c(SC)nc(COC(=O)NC)c1COC(=O)NC`, for which the TGI with OVCAR-3 ovarian, with CCRF-CEM leukemia, in the test with RPMI-8226 leukemia, in the test on SK-MEL-28 melanoma, in the test with SF-295 CNS and in the test with CAKI-1 renal was more than 100 µM in each case. The TGI in the test with KM12 colon, with NCI-H460 lung, with SR leukemia and in the test on M14 melanoma was more than 100 µM throughout.
`CN1CCN(c2ccc(NC(=O)c3nc4ccc5[nH]ncc5c4c4c3CCCC4)cc2C(F)(F)F)CC1`: the GI50 was 0.939 µM in the test on OVCAR-3 ovarian; 1.07 µM with CCRF-CEM leukemia; 0.966 µM in the test with RPMI-8226 leukemia; 0.941 µM in the test on SK-MEL-28 melanoma; 1.39 µM in the test with SF-295 CNS; 1.52 µM in the test on CAKI-1 renal. The GI50 with KM12 colon was 1.47 µM; with NCI-H460 lung it was 0.956 µM; in the test with SR leukemia, 0.9 µM; with M14 melanoma it was 0.861 µM. Moreover, the TGI is 1.81 µM in the test on OVCAR-3 ovarian; 3.33 µM in the test on CCRF-CEM leukemia; 2.3 µM in the test with RPMI-8226 leukemia; 1.71 µM in the test with SK-MEL-28 melanoma; 4.16 µM in the test with SF-295 CNS; 7.72 µM with CAKI-1 renal. Also, the TGI in the test on KM12 colon stood at 5.27 µM; with NCI-H460 lung, 1.83 µM; in the test on SR leukemia, 2.81 µM; with M14 melanoma, 1.71 µM.
For the compound `CC1(C)CC[C@H](Nc2ncc(C(F)(F)F)c(-c3c[nH]c4c(P(C)(C)=O)c(C#N)ccc34)n2)CN1`, the GI50 in the test with OVCAR-3 ovarian was less than 0.0214 µM; with CCRF-CEM leukemia it was 0.143 µM; in the test with RPMI-8226 leukemia, less than 0.01 µM; in the test on SK-MEL-28 melanoma, less than 0.01 µM; with SF-295 CNS, 0.0267 µM; in the test on CAKI-1 renal, 0.0361 µM. Also, the GI50 was 0.19 µM in the test with KM12 colon, less than 0.01 µM in the test on NCI-H460 lung, less than 0.01 µM in the test with SR leukemia and 0.0759 µM with M14 melanoma. Moreover, the TGI in the test with OVCAR-3 ovarian was 4.29 µM; in the test on CCRF-CEM leukemia, more than 32 µM; in the test with RPMI-8226 leukemia, 3.43 µM; with SK-MEL-28 melanoma, 9.2 µM; in the test on SF-295 CNS, 13.5 µM; with CAKI-1 renal it was more than 37.6 µM. Moreover, the TGI with KM12 colon amounted to 13.2 µM; in the test on NCI-H460 lung it was 11.5 µM; in the test on M14 melanoma, 6.69 µM.
